According to the NIST ThermoML archive (doi:10.1016/j.jct.2016.03.030):
± gives the expanded uncertainty stated by the source.

Test: xn = mol fraction of the nth substance listed
Settings: 100 kPa, Liquid; for viscosity: Falling or rolling sphere viscometry; for mass density: Vibrating tube method

CCC[N+]1(C)CCOCC1.[Br-] [4-methyl-4-propylmorpholinium bromide] + O
Settings	mass density [kg/m3]	viscosity [mPa·s]
298.15 K, x1 = 0.0336	1084.6 ± 1.1	1.651 ± 0.17
298.15 K, x1 = 0.0618	1135.4 ± 1.1	2.638 ± 0.27
298.15 K, x1 = 0.0875	1170.4 ± 1	4.066 ± 0.41
298.15 K, x1 = 0.1298	1213 ± 1	8.208 ± 0.82
298.15 K, x1 = 0.1709	1242.8 ± 1.1	15.89 ± 1.6
298.15 K, x1 = 0.2036	1260.9 ± 1.1	26.67 ± 2.7
298.15 K, x1 = 0.254	1282.4 ± 1.2	62.45 ± 6.3
298.15 K, x1 = 0.2742	1289.4 ± 1.3	90.09 ± 9.2
298.15 K, x1 = 0.3025	1298.2 ± 1.4	154 ± 16
303.15 K, x1 = 0.0336	1082.5 ± 1.1	1.45 ± 0.14
303.15 K, x1 = 0.0618	1132.9 ± 1.1	2.291 ± 0.23
303.15 K, x1 = 0.0875	1167.6 ± 1	3.483 ± 0.35
303.15 K, x1 = 0.1298	1209.9 ± 1	6.823 ± 0.68
303.15 K, x1 = 0.1709	1239.6 ± 1.1	12.9 ± 1.3
303.15 K, x1 = 0.2036	1257.7 ± 1.1	20.98 ± 2.1
303.15 K, x1 = 0.254	1279.2 ± 1.2	46.52 ± 4.7
303.15 K, x1 = 0.2742	1286.1 ± 1.3	66.14 ± 6.7
303.15 K, x1 = 0.3025	1294.9 ± 1.3	108.8 ± 11
308.15 K, x1 = 0.0336	1080.2 ± 1.1	1.281 ± 0.13
308.15 K, x1 = 0.0618	1130.2 ± 1.1	2.002 ± 0.2
308.15 K, x1 = 0.0875	1164.7 ± 1	3 ± 0.3
308.15 K, x1 = 0.1298	1206.8 ± 1	5.723 ± 0.57
308.15 K, x1 = 0.1709	1236.4 ± 1.1	10.62 ± 1.1
308.15 K, x1 = 0.2036	1254.4 ± 1.1	16.76 ± 1.7
308.15 K, x1 = 0.254	1275.9 ± 1.2	35.35 ± 3.6
308.15 K, x1 = 0.2742	1282.8 ± 1.3	49.51 ± 5
308.15 K, x1 = 0.3025	1291.6 ± 1.3	79.28 ± 8
313.15 K, x1 = 0.0336	1077.8 ± 1.1	1.14 ± 0.11
313.15 K, x1 = 0.0618	1127.5 ± 1.1	1.761 ± 0.18
313.15 K, x1 = 0.0875	1161.7 ± 1	2.61 ± 0.26
313.15 K, x1 = 0.1298	1203.6 ± 1	4.854 ± 0.49
313.15 K, x1 = 0.1709	1233.1 ± 1.1	8.847 ± 0.89
313.15 K, x1 = 0.2036	1251.1 ± 1.1	13.62 ± 1.4
313.15 K, x1 = 0.254	1272.6 ± 1.2	27.4 ± 2.8
313.15 K, x1 = 0.2742	1279.5 ± 1.3	38.4 ± 3.9
313.15 K, x1 = 0.3025	1288.3 ± 1.3	59.26 ± 6
318.15 K, x1 = 0.0336	1075.3 ± 1.1	1.02 ± 0.1
318.15 K, x1 = 0.0618	1124.7 ± 1.1	1.559 ± 0.16
318.15 K, x1 = 0.0875	1158.7 ± 1	2.287 ± 0.23
318.15 K, x1 = 0.1298	1200.4 ± 1	4.155 ± 0.42
318.15 K, x1 = 0.1709	1229.9 ± 1.1	7.459 ± 0.75
318.15 K, x1 = 0.2036	1247.8 ± 1.1	11.23 ± 1.1
318.15 K, x1 = 0.254	1269.2 ± 1.2	21.7 ± 2.2
318.15 K, x1 = 0.2742	1276.2 ± 1.3	30.07 ± 3
318.15 K, x1 = 0.3025	1285.1 ± 1.3	45.23 ± 4.5
323.15 K, x1 = 0.0336	1072.3 ± 1.1	0.909 ± 0.091
323.15 K, x1 = 0.0618	1121.8 ± 1.1	1.372 ± 0.14
323.15 K, x1 = 0.0875	1155.7 ± 1	1.988 ± 0.2
323.15 K, x1 = 0.1298	1197.2 ± 1	3.541 ± 0.35
323.15 K, x1 = 0.1709	1226.6 ± 1.1	6.268 ± 0.63
323.15 K, x1 = 0.2036	1244.5 ± 1.1	9.267 ± 0.93
323.15 K, x1 = 0.254	1265.9 ± 1.2	17.23 ± 1.7
323.15 K, x1 = 0.2742	1272.9 ± 1.2	23.66 ± 2.4
323.15 K, x1 = 0.3025	1281.7 ± 1.3	34.94 ± 3.5
328.15 K, x1 = 0.0336	1069.9 ± 1.1	0.812 ± 0.081
328.15 K, x1 = 0.0618	1118.8 ± 1.1	1.215 ± 0.12
328.15 K, x1 = 0.0875	1152.5 ± 1	1.742 ± 0.17
328.15 K, x1 = 0.1298	1193.9 ± 1	3.047 ± 0.31
328.15 K, x1 = 0.1709	1223.2 ± 1.1	5.322 ± 0.53
328.15 K, x1 = 0.2036	1241.1 ± 1.1	7.756 ± 0.78
328.15 K, x1 = 0.254	1262.6 ± 1.2	13.96 ± 1.4
328.15 K, x1 = 0.2742	1269.5 ± 1.2	19.1 ± 1.9
328.15 K, x1 = 0.3025	1278.4 ± 1.3	27.52 ± 2.8
333.15 K, x1 = 0.0336	1066.3 ± 1.1	0.736 ± 0.074
333.15 K, x1 = 0.0618	1115.5 ± 1.1	1.088 ± 0.11
333.15 K, x1 = 0.0875	1149.1 ± 1	1.547 ± 0.15
333.15 K, x1 = 0.1298	1190.6 ± 1	2.654 ± 0.27
333.15 K, x1 = 0.1709	1219.9 ± 1.1	4.582 ± 0.46
333.15 K, x1 = 0.2036	1237.8 ± 1.1	6.587 ± 0.66
333.15 K, x1 = 0.254	1259.2 ± 1.2	11.53 ± 1.2
333.15 K, x1 = 0.2742	1266.2 ± 1.2	15.71 ± 1.6
333.15 K, x1 = 0.3025	1275.1 ± 1.3	22.11 ± 2.2
338.15 K, x1 = 0.0336	1064.5 ± 1.1	0.668 ± 0.067
338.15 K, x1 = 0.0618	1113.1 ± 1.1	0.979 ± 0.098
338.15 K, x1 = 0.0875	1145.3 ± 1	1.378 ± 0.14
338.15 K, x1 = 0.1298	1187.3 ± 1	2.426 ± 0.24
338.15 K, x1 = 0.1709	1216.5 ± 1.1	4.142 ± 0.42
338.15 K, x1 = 0.2036	1234.4 ± 1.1	5.636 ± 0.57
338.15 K, x1 = 0.254	1255.9 ± 1.2	9.633 ± 0.97
338.15 K, x1 = 0.2742	1262.9 ± 1.2	12.97 ± 1.3
338.15 K, x1 = 0.3025	1271.7 ± 1.3	18.05 ± 1.8
343.15 K, x1 = 0.0336	1061.9 ± 1.1	0.63 ± 0.063
343.15 K, x1 = 0.0618	1110.2 ± 1.1	0.925 ± 0.093
343.15 K, x1 = 0.0875	1142 ± 1	1.303 ± 0.13
343.15 K, x1 = 0.1298	1183.9 ± 1	2.269 ± 0.23
343.15 K, x1 = 0.1709	1213.1 ± 1.1	4.062 ± 0.81
343.15 K, x1 = 0.2036	1231 ± 1.1	4.879 ± 0.49
343.15 K, x1 = 0.254	1252.5 ± 1.2	8.213 ± 0.82
343.15 K, x1 = 0.2742	1259.5 ± 1.2	10.96 ± 1.1
343.15 K, x1 = 0.3025	1268.4 ± 1.3	14.99 ± 1.5
